{"source": "ChEMBL document CHEMBL2346651", "about": "“Structure-activity relationship study of tachykinin peptides for the development of novel neurokinin-3 receptor selective agonists” (Bioorg Med Chem, 2013)", "key": {"Neuromedin-K receptor [1]": {"target": "T1, Neuromedin-K receptor (Homo sapiens, UniProt P29371)", "T1 sequence (P29371 whole entry)": "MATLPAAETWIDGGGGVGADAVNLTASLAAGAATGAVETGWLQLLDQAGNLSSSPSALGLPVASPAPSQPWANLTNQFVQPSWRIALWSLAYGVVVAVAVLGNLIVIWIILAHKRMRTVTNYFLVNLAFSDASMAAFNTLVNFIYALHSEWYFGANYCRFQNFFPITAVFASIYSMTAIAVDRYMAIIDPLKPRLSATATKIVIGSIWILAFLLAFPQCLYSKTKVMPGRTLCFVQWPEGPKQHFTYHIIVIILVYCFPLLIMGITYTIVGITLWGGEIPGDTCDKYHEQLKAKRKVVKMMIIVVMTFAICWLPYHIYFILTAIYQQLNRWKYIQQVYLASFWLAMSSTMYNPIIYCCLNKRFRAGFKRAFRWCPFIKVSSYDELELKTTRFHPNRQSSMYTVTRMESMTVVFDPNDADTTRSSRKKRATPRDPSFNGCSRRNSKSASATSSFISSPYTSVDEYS", "test": "Agonist activity at NK3R (unknown origin) transfected in CHO cells assessed as calcium influx […]", "format": "functional, cell-based"}, "Neuromedin-K receptor [2]": {"target": "T1, Neuromedin-K receptor", "test": "Displacement of ([125I]-His3, MePhe7)-NKB from NK3R (unknown origin) transfected in CHO cells by gamma counting analysis", "format": "cell-based"}, "[3]": {"target": "T2, Substance-K receptor (Homo sapiens) (UniProt P21452)", "T2 sequence (whole entry)": "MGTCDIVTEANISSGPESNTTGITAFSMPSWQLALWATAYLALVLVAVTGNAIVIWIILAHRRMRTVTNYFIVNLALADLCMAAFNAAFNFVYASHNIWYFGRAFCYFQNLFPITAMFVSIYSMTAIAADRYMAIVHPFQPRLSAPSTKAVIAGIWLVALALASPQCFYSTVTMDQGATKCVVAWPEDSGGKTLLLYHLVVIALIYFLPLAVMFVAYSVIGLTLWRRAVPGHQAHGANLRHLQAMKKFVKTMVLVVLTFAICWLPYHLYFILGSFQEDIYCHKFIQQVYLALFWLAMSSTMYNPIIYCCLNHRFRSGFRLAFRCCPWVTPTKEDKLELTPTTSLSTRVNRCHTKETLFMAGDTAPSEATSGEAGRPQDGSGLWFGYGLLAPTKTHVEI", "test": "Displacement of [125I]-NKA from NK2R (unknown origin) transfected in CHO cells at 10 uM by gamma counting analysis", "format": "cell-based"}, "[4]": {"target": "Substance-P receptor (Homo sapiens) (UniProt P25103)", "sequence (P25103 whole entry)": "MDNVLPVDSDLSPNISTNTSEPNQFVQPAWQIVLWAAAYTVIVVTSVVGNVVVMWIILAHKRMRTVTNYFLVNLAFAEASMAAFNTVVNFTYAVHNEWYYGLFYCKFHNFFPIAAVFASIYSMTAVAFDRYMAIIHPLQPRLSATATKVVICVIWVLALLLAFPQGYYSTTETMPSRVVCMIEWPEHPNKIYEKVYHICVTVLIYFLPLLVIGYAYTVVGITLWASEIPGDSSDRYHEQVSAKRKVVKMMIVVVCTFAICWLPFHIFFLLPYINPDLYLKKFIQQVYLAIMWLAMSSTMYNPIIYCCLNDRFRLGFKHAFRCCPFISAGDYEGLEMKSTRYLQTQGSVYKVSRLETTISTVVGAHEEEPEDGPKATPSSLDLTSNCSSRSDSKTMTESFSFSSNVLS", "test": "Displacement of [125I]-BH-SP from NK1R (unknown origin) transfected in CHO cells at 10 uM by gamma counting analysis", "format": "cell-based"}}, "note": "Residues, ends and D or L forms follow the SMILES beside them.", "data": [{"compound": "CSCC[C@H](NC(=O)[C@H](CC(C)C)NC(=O)CNC(=O)[C@H](Cc1ccccc1)N(C)C(=O)[C@H](Cc1ccccc1)NC(=O)[C@@H](NC(=O)[C@H](CC(=O)O)NC(=O)[C@H](Cc1cnc[nH]1)NC(=O)[C@H](CCSC)NC(=O)[C@@H](N)CC(=O)O)C(C)C)C(N)=O", "note": "(HELM PEPTIDE1{D.M.H.D.V.F.[meF].G.L.M.[am]}$$$$V2.0)", "values": [{"measurement": "EC50", "setting": "Neuromedin-K receptor [1]", "value": 0.065, "unit": "nM"}, {"measurement": "IC50", "setting": "Neuromedin-K receptor [2]", "value": 1.5, "unit": "nM"}, {"measurement": "inhibition", "setting": "[3]", "value": 29, "unit": "%"}, {"measurement": "inhibition", "setting": "[4]", "value": "< 10", "unit": "%"}]}]}
